Assay results as given in ChEMBL document CHEMBL3885881, “DrugMatrix”.

Organism: Rattus norvegicus
Experiment: DrugMatrix - Regimen: Daily Repeat
Type: toxicity, organism-based, Sprague-Dawley
Design: regimen Daily Repeat, gender Male, age 6-8 weeks
Conditions: in vivo, sc, route subcutaneous, […]; for ABSOLUTE BASOPHIL / ABSOLUTE EOSINOPHIL / ABSOLUTE LYMPHOCYTE / ABSOLUTE MONOCYTE / ABSOLUTE SEGMENTED NEUTROPHIL / BASOPHIL / EOSINOPHIL / ERYTHROCYTE COUNT / HEMATOCRIT / HEMOGLOBIN / LEUKOCYTE COUNT / LYMPHOCYTE / MEAN CORPUSCULAR HEMOGLOBIN / MEAN CORPUSCULAR HEMOGLOBIN CONCENTRATION / MEAN CORPUSCULAR VOLUME / MONOCYTE / NEUTROPHIL / NUCLEATED RED BLOOD CELLS / PLATELET COUNT: tissue Blood; for ALANINE AMINOTRANSFERASE / ALBUMIN / ALKALINE PHOSPHATASE / ASPARTATE AMINOTRANSFERASE / BLOOD UREA NITROGEN / CARBON DIOXIDE / CHLORIDE / CHOLESTEROL / CREATINE PHOSPHOKINASE / CREATININE / GLUCOSE / LACTATE DEHYDROGENASE / LIPASE / PHOSPHORUS / POTASSIUM / SODIUM / TOTAL BILIRUBIN / TOTAL PROTEIN / URIC ACID: tissue Plasma
[1] = 0 mg/kg, 72 h, dose level Control, time 3 day
[2] = 0 mg/kg, 120 h, dose level Control, time 5 day
[3] = 50 mg/kg, 72 h, dose level Low, time 3 day

CCCCOC(=O)c1ccc(N)cc1 [BUTAMBEN]
ABSOLUTE BASOPHIL [1]: 0 CELLS/uL | ABSOLUTE EOSINOPHIL [1]: 42.67 CELLS/uL | ABSOLUTE LYMPHOCYTE [1]: 10202 CELLS/uL | ABSOLUTE MONOCYTE [1]: 261.5 CELLS/uL | ABSOLUTE SEGMENTED NEUTROPHIL [1]: 2193.83 CELLS/uL | BASOPHIL [1]: 0% | EOSINOPHIL [1]: 0.33% | ERYTHROCYTE COUNT [1]: 5.63 x10E6/uL | HEMATOCRIT [1]: 35.35% | HEMOGLOBIN [1]: 13.07 G/DL | LEUKOCYTE COUNT [1]: 12.7 x10E3/uL | LYMPHOCYTE [1]: 81.17% | MEAN CORPUSCULAR HEMOGLOBIN [1]: 23.23 pg | MEAN CORPUSCULAR HEMOGLOBIN CONCENTRATION [1]: 36.97 G/DL | MEAN CORPUSCULAR VOLUME [1]: 62.82 fL | MONOCYTE [1]: 2% | NEUTROPHIL [1]: 16.5% | NUCLEATED RED BLOOD CELLS [1]: 0 /100WBC | PLATELET COUNT [1]: 1180.33 x10E3/uL | ALANINE AMINOTRANSFERASE [1]: 48.67 u/L | ALBUMIN [1]: 4.08 G/DL | ALKALINE PHOSPHATASE [1]: 360.67 u/L | ASPARTATE AMINOTRANSFERASE [1]: 85.5 u/L | BLOOD UREA NITROGEN [1]: 17.83 mg/dL | CARBON DIOXIDE [1]: 26.17 mmol/L | CHLORIDE [1]: 101.83 MEQ/L | CHOLESTEROL [1]: 71 mg/dL | CREATINE PHOSPHOKINASE [1]: 515.17 u/L | CREATININE [1]: 0.22 mg/dL | GLUCOSE [1]: 192.5 mg/dL | LACTATE DEHYDROGENASE [1]: 214.67 u/L | LIPASE [1]: 8.5 u/L | PHOSPHORUS [1]: 12.95 mg/dL | POTASSIUM [1]: 6.39 MEQ/L | SODIUM [1]: 142.38 MEQ/L | TOTAL BILIRUBIN [1]: 0.18 mg/dL | TOTAL PROTEIN [1]: 5.95 G/DL | URIC ACID [1]: 1.83 mg/dL | ABSOLUTE BASOPHIL [2]: 0 CELLS/uL | ABSOLUTE EOSINOPHIL [2]: 188.5 CELLS/uL | ABSOLUTE LYMPHOCYTE [2]: 12360.83 CELLS/uL | ABSOLUTE MONOCYTE [2]: 64.33 CELLS/uL | ABSOLUTE SEGMENTED NEUTROPHIL [2]: 1986.33 CELLS/uL | BASOPHIL [2]: 0% | EOSINOPHIL [2]: 1.33% | ERYTHROCYTE COUNT [2]: 5.52 x10E6/uL | HEMATOCRIT [2]: 35.82% | HEMOGLOBIN [2]: 13.25 G/DL | LEUKOCYTE COUNT [2]: 14.6 x10E3/uL | LYMPHOCYTE [2]: 84.5% | MEAN CORPUSCULAR HEMOGLOBIN [2]: 24.05 pg | MEAN CORPUSCULAR HEMOGLOBIN CONCENTRATION [2]: 36.98 G/DL | MEAN CORPUSCULAR VOLUME [2]: 64.97 fL | MONOCYTE [2]: 0.5% | NEUTROPHIL [2]: 13.67% | NUCLEATED RED BLOOD CELLS [2]: 0 /100WBC | PLATELET COUNT [2]: 1297.83 x10E3/uL | ALANINE AMINOTRANSFERASE [2]: 51.17 u/L | ALBUMIN [2]: 4.08 G/DL | ALKALINE PHOSPHATASE [2]: 393.17 u/L | ASPARTATE AMINOTRANSFERASE [2]: 111 u/L | BLOOD UREA NITROGEN [2]: 18.17 mg/dL | CARBON DIOXIDE [2]: 25 mmol/L | CHLORIDE [2]: 105.17 MEQ/L | CHOLESTEROL [2]: 65.5 mg/dL | CREATINE PHOSPHOKINASE [2]: 911.5 u/L | CREATININE [2]: 0.21 mg/dL | GLUCOSE [2]: 183 mg/dL | LACTATE DEHYDROGENASE [2]: 189 u/L | LIPASE [2]: 8.33 u/L | PHOSPHORUS [2]: 12.78 mg/dL | POTASSIUM [2]: 6.05 MEQ/L | SODIUM [2]: 144.57 MEQ/L | TOTAL BILIRUBIN [2]: 0.25 mg/dL | TOTAL PROTEIN [2]: 5.83 G/DL | URIC ACID [2]: 1.58 mg/dL | ABSOLUTE BASOPHIL [3]: 0 CELLS/uL | ABSOLUTE EOSINOPHIL [3]: 143.67 CELLS/uL | ABSOLUTE LYMPHOCYTE [3]: 12216.67 CELLS/uL | ABSOLUTE MONOCYTE [3]: 393.33 CELLS/uL | ABSOLUTE SEGMENTED NEUTROPHIL [3]: 2079.67 CELLS/uL | BASOPHIL [3]: 0% | EOSINOPHIL [3]: 1% | ERYTHROCYTE COUNT [3]: 5.53 x10E6/uL | HEMATOCRIT [3]: 33.47% | HEMOGLOBIN [3]: 12.13 G/DL | LEUKOCYTE COUNT [3]: 14.83 x10E3/uL | LYMPHOCYTE [3]: 82.33% | MEAN CORPUSCULAR HEMOGLOBIN [3]: 21.93 pg | MEAN CORPUSCULAR HEMOGLOBIN CONCENTRATION [3]: 36.23 G/DL | MEAN CORPUSCULAR VOLUME [3]: 60.5 fL | MONOCYTE [3]: 2.67% | NEUTROPHIL [3]: 14% | NUCLEATED RED BLOOD CELLS [3]: 0 /100WBC | PLATELET COUNT [3]: 1210 x10E3/uL | ALANINE AMINOTRANSFERASE [3]: 56.33 u/L | ALBUMIN [3]: 3.9 G/DL | ALKALINE PHOSPHATASE [3]: 352 u/L | ASPARTATE AMINOTRANSFERASE [3]: 93.33 u/L | BLOOD UREA NITROGEN [3]: 15.67 mg/dL | CARBON DIOXIDE [3]: 27 mmol/L | CHLORIDE [3]: 103.67 MEQ/L | CHOLESTEROL [3]: 75.33 mg/dL | CREATINE PHOSPHOKINASE [3]: 408 u/L | CREATININE [3]: 0.24 mg/dL | GLUCOSE [3]: 178.67 mg/dL | LACTATE DEHYDROGENASE [3]: 150.67 u/L | LIPASE [3]: 8.33 u/L | PHOSPHORUS [3]: 12.53 mg/dL | POTASSIUM [3]: 5.89 MEQ/L | SODIUM [3]: 144.57 MEQ/L | TOTAL BILIRUBIN [3]: 0.2 mg/dL | TOTAL PROTEIN [3]: 5.57 G/DL | URIC ACID [3]: 1.43 mg/dL
